In series [1] the test system is neuropathic pain associated with diabetic peripheral neuropathy. Kind of series: Randomized, double-blind, placebo-controlled multiple-dose study in subjects with neuropathic pain associated with diabetic peripheral neuropathy. It counts as in vivo, human. On the procedure:
A randomized, double-blind, parallel-group, placebo-controlled, multiple-dose study was conducted to assess the efficacy and safety of NYX-2925 in subjects with neuropathic pain associated with diabetic peripheral neuropathy. The study was to evaluate the efficacy of multiple dose levels of NYX-2925 versus placebo in treating the neuropathic pain associated with diabetic peripheral neuropathy. The study was also to assess the effects of multiple dose levels of NYX-2925 versus placebo on pain characteristics, sleep interference, health status, psychological state, and global improvement, and to assess the safety and tolerability of multiple dose levels of NYX-2925. The study was a 6- to 9-week study, including a 1- to 4-week Screening Period, followed by a 4-week double-blind, randomized, placebo-controlled Treatment Period, and a 1-week Follow-Up Period. Subjects with Type 2 diabetes who had been on stable antidiabetic medication for at least 1 month (or had stable glycemic control with diet and exercise alone) and who had been suffering from painful diabetic peripheral neuropathy in the lower extremities for at least 6 months but not more than 10 years were screened for diabetic peripheral neuropathy using the Michigan Neuropathy Screening Instrument and the Masquerading Disorders Tool. […] Subjects were dispensed acetaminophen to be used as rescue medication, and were instructed to take no more than 2 g/daily (one to two 500-mg caplets every 4 to 6 hours as needed) for DPN pain. Beginning immediately after Visit 1, pain intensity and rescue medication use were recorded in the study-issued handheld device daily at bedtime. Subjects entered their average pain intensity, worst pain intensity, pain on walking, and whether rescue medication was used during the past 24 hours. Pain intensity was recorded using an 11-point NRS, with 0 being no pain and 10 being the worst pain imaginable. Every morning upon awakening, subjects completed the Daily Sleep Interference Scale (DSIS) via their study-issued handheld device. Eligible subjects were randomized to receive either NYX-2925 10 mg daily, NYX-2925 50 mg daily, NYX-2925 200 mg daily, or placebo for 4 weeks in a 1:1:1:1 allocation. Investigators and subjects were masked to the randomization allocation. Subjects were dispensed a 2-week supply of investigational product and instructed to take 2 capsules by mouth once daily. Subjects were also re-dispensed acetaminophen to use as rescue medication for DPN pain; instructions not to exceed 2 g/day were reinforced. The appropriate use of rescue medication was assessed by inventory of the returned caplets, as well as by subject interview. Subjects were instructed to continue entering their average pain intensity, worst pain intensity, pain upon walking, and whether they used rescue medication over the past 24 hours into their study-issued handheld devices every night. Every morning upon awakening, subjects completed the DSIS via their study-issued handheld device. Pain diary compliance was reviewed at each study visit by the study staff, and reporting instructions was reinforced. Quantitative sensory testing was done using the Bedside Sensory Testing Kit. The following scales were completed at the Baseline Visit: Brief Pain Inventory for Diabetic Peripheral Neuropathy (BPI-DPN), the Short-Form McGill Pain Questionnaire version 2 (SF-MPQ-2), the Norfolk Quality of Life Questionnaire-Diabetic Neuropathy (QOL-DN), the HADS, the Insomnia Severity Index, and the S-STS. Subjects returned to the clinic at the end of Week 2 for assessment of compliance with study medication, use of rescue medication, and were dispensed the final 2-week supply of investigational product and rescue medication for DPN pain. Pain diary compliance was reviewed by the study staff, and reporting instructions were reinforced. Adverse events were assessed by asking the subjects a non-leading question. Use of concomitant medications was documented. […]

Series [2] is described as follows: Solubility of anhydrous crystalline forms in water and isopropyl acetate at room temperature. It counts as physicochemical.
Series [3] can be described thus: Solid form conversion / physical stability (XRPD). The class given is physicochemical. The note with it: for form conversion in suspension: isopropanol, ethyl acetate, or isopropyl acetate. On the procedure: X-ray powder diffraction (XRPD) analysis was carried out on a Stoe Stadi P with Mythen1K detector; Cu-Kα1 radiation; 40 kV and 40 mA tube power; curved Ge monochromator; 0.02° 2θ step size, 12 s step time, 1.5-50.5° 2θ scanning range; detector mode: step scan; 1° 2θ detector step. The sample (about 20 mg) was placed between two acetate foils and clamped in a Stoe transmission sample holder. The sample holder was rotated during the measurement.
X-ray powder diffraction (XRPD) analysis was also carried out on a on a Bruker D8 Advance; Cu-Kα radiation; standard measurement conditions: Bragg-Brentano reflection geometry; 40 kV and 40 mA tube power; LynxEye detector; 0.02° 2θ step size, 37 s step time, 2.5-50.5° 2θ scanning range (about 10 min measurement time. The sample was spread on a silicon single crystal substrate without cavity and flattened to fit to the 0.1 mm depth of the sample holder.
Crystalline, anhydrous Form C material of 3-hydroxy-2-(5-isobutyryl-1-oxo-2,5-diazaspiro[3.4]octan-2-yl)butanamide is not stable in comparison to anhydrous Form A or anhydrous Form B under ambient conditions of temperature and humidity. […] In turn, anhydrous Form A and anhydrous Form B each convert to monohydrate Form MH under the conditions described above.

Where [4] appears, read: 10, 50 or 200 mg by mouth once daily for 4 weeks.
Setting [5] is: advanced DPN (at least 4 years).
[6] abbreviates: patients with at least 4 years of DPN duration.

Structures are written as SMILES. Converted amounts (≈) assume the structure as drawn. Like-named read-outs stand apart in the source and are kept apart here. Bounds are passed on as bounds.

The text below walks through data of patent US12012413B2, “Methods of treating painful diabetic peripheral neuropathy” (Tenacia Biotechnology (Hong Kong) Co., Limited, priority 2019, dated 2024).

Turning to `CC(C)C(=O)N1CCC[C@]12CN([C@H](C(N)=O)[C@@H](C)O)C2=O` [NYX-2925, (2S,3R)-3-hydroxy-2-((R)-5-isobutyryl-1-oxo-2,5-diazaspiro[3.4]octan-2-yl)butanamide], in series [1] (50 mg dose, advanced DPN (at least 4 years), at least at the 2, 3 and 4 week points), the “change in daily sleep interference score from baseline” value was “Statistical significance”. Moreover, the “change in average pain (NRS) from baseline” value in series [1] (50 mg dose, advanced DPN (at least 4 years), at least at the 3 and 4 week points) was “Statistical significance”. Besides, the “change from placebo in average daily pain, baseline to week 4, by duration of painful DPN” value in series [1] (50 mg dose, groups ≥1 to ≥5 yrs) is recorded as “most significant at ≥4 years”. In addition, in series [1] (50 mg once daily, patients with advanced DPN), the “Week 4 change vs. baseline in average daily pain (on 10-point NRS)” value is 1.93 points. The “Week 4 change vs. placebo in average daily pain (on 10-point NRS)” value in series [1] (50 mg once daily, patients with advanced DPN, p=0.004) turned out to be 1.21 points. Also, in series [1] (200 mg and 50 mg doses), the “separation from placebo by dose” value is on record as “meaningful separation from placebo”. Also, the “shape of dose response” value in series [1] (10, 50 and 200 mg doses) was “inverted-U-shaped dose response”. Further, in series [1] (setting [4]), the “overall AE profile” value is given as “comparable to placebo”; the safety and tolerability result was “safe and well tolerated”; the “serious adverse events (SAEs)” value is on record as “no SAEs”. Further, in series [1] (setting [5]), the “change in pain on walking (NRS) score from baseline” value is “improvement” and the “change in worst pain from baseline” value is given as “improvement”. Besides, the “most active dose level among the three doses tested (10, 50, 200 mg)” value in series [1] (once daily for 4 weeks) worked out at 50 mg. The “separation from placebo on the primary endpoint (change in average daily pain)” value in series [1] (patients not on a concomitant analgesic (n=148), 10, 50 or 200 mg by mouth once daily for 4 weeks) is reported as “numeric, but not statistically significant, separation from placebo”. Besides, the pain alleviation result in series [1] (patients with DPN, after four weeks) was “meaningful pain alleviation”. Further, the “effects on change in average daily pain vs. placebo” value in series [1] (patients with advanced DPN (DPN for ≥4 years, n=127; post-hoc analysis)) is “significant effects”. Besides, in series [1] (setting [6]), the “insomnia severity (secondary endpoint)” value was “Improvement”, the “pain interference (secondary endpoint)” value is “Improvement”, the “pain severity (secondary endpoint)” value was “Improvement” and the “patient global impression of change (PGI-C) (secondary endpoint)” value is reported as “Improvement”. In series [1] (setting [6]), the “quality of life (secondary endpoint)” value is “Improvement” and the “total pain score (secondary endpoint)” value is “Improvement”. The “effect of concomitant analgesic use on treatment benefit” value in series [1] (patients with or without a concomitant analgesic) is reported as “does not appear to affect treatment benefit”. In addition, the “MMRM change in daily sleep interference” value in series [1] (subjects not using analgesic (n=148), 50 mg dose, at the 3 and 4 week points) is “significance”. In series [1] (total patient population (n=300), 10, 50 or 200 mg by mouth once daily for 4 weeks), the “separation from placebo on the primary endpoint (change in average daily pain)” value is recorded as “numeric, but not statistically significant, separation from placebo”.

As to `CC(C)C(=O)N1CCCC12CN(C(C(N)=O)C(C)O)C2=O` (centres unmarked) [Form B, 3-hydroxy-2-(5-isobutyryl-1-oxo-2,5-diazaspiro[3.4]octan-2-yl)butanamide], the solubility in series [2] (isopropyl acetate, organic solvent or mixture, after 10 minutes, 1 hour, and 6 hours at room temperature, read-out: solubility in isopropyl acetate) is approximately 9 mg/mL (≈ 30.3 mM). In series [2] (water, after 10 minutes at room temperature), this molecule registered a solubility at 10 min of approximately 54 mg/mL (≈ 182 mM). The molecule further registered a solubility at 1 h in series [2] (water, after 1 hour at room temperature) of approximately 54 mg/mL (≈ 182 mM). In addition, the solubility at 6 h in series [2] (water, after 6 hours at room temperature) is approximately 48 mg/mL (≈ 161 mM). Further, the “conversion to the monohydrate Form MH in the solid state” value in series [3] (ambient temperature, atmosphere of greater than or equal to 50% relative humidity) is recorded as “readily converts to the monohydrate Form MH”.

For `CC(C)C(=O)N1CCCC12CN(C(C(N)=O)C(C)O)C2=O` (centres unmarked) [Form C, 3-hydroxy-2-(5-isobutyryl-1-oxo-2,5-diazaspiro[3.4]octan-2-yl)butanamide], in series [3] (ambient conditions of temperature and humidity), the “stability in comparison to anhydrous Form A or anhydrous Form B” value is “not stable”. In addition, the “form conversion in suspension” value is “converts to anhydrous Form B” in series [3] (temperatures greater than or equal to 75° C.) and “converts to anhydrous Form A” in series [3] (temperatures less than or equal to 50° C.).

For the molecule `CC(C)C(=O)N1CCCC12CN(C(C(N)=O)C(C)O)C2=O` (centres unmarked) [3-hydroxy-2-(5-isobutyryl-1-oxo-2,5-diazaspiro[3.4]octan-2-yl)butanamide], the “physical stability on storage (XRPD)” value in series [3] (about six weeks in a sealed vial at −20° C.) is “did not crystallize”.

Regarding `CC(C)C(=O)N1CCCC12CN(C(C(N)=O)C(C)O)C2=O` (centres unmarked) [Form A, 3-hydroxy-2-(5-isobutyryl-1-oxo-2,5-diazaspiro[3.4]octan-2-yl)butanamide], in series [2] (after 10 minutes, 1 hour, and 6 hours at room temperature), the “solubility in isopropyl acetate” value is recorded as “about 8 mg/mL”. The solubility in series [2] (isopropyl acetate, 22 °C, organic solvent or mixture, room temperature (about 22° C.), read-out: solubility in isopropyl acetate) is approximately 8 mg/mL (≈ 26.9 mM); in series [2] (water, 22 °C, water, room temperature (about 22° C.), read-out: solubility in water), 54 to 55 mg/mL (≈ 182 to 185 mM). For the same molecule, in series [3] (ambient temperature, atmosphere of greater than 5% relative humidity), the “time to convert to the monohydrate Form MH in the solid phase” value is reported as not above 3 days.
